Source: patent publication US7442529B2, “Fluorescent probes for biological studies” (Massachusetts Institute of Technology, priority 2005, dated 2008)
Where a name gives a salt, the structure may show the parent alone. One block for each molecule: values may come before it. Non-standard residues stand in square brackets, D forms with d. Residues, ends and D or L forms follow the SMILES beside them. Dap(6-DMN) = CN(C)c1ccc2cc3c(cc2c1)C(=O)N(C[C@H](N)C(=O)O)C3=O; pY = N[C@@H](Cc1ccc(OP(=O)(O)O)cc1)C(=O)O

Assays:
GST-Abl SH2 = molecular target: T1, GST-Abl SH2 (Homo sapiens, UniProt P00519); experiment: Fluorescence titration of peptides with GST-Abl SH2, determination of Kd; format: binding
T1 construct: The SH2 domain was cloned using BamH1 (5′) EcoR1 (3′) sites; made in house; host or cells: E. coli (plasmid received from elsewhere; strain not clearly stated for Abl)
T1 sequence (P00519 127-217 limits assumed): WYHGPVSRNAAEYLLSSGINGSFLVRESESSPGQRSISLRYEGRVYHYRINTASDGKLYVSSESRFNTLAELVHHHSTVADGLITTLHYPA
Protocol: (§1) The peptides of Table 1 were incubated with targeted and nontargeted SH2 domains. The binding of peptides Crk-bp, Crk-bp2, Abl-bp, and Abl-bp2 to SH2 target domains can be studied by fluorescence titration as shown in FIGS. 1-4.
Fluorescence titrations of Abl-bp with non-targeted GST-PI3K SH2 and […] are shown in FIG. 2 (b) and 4 (c), respectively. The relative fluorescence emission intensities for the Abl-bp peptide and aforementioned SH2 domain titrations are shown in FIG. 2 (c).
Fluorescence titrations Abl-bp2 with non-targeted GST-PI3K SH2 and GST-Crk SH2 are shown in FIGS. 3 (b) and 4 (d), respectively. The relative fluorescence emission intensities for the Abl-bp2 peptide and aforementioned SH2 domain titrations are shown in FIG. 3 (c).
(§2) Peptide stock solutions of known concentration (determined by UV absorbance at 388 nm, E=7980 M−1 cm−1) were used to prepare 5 μM peptide concentration samples in buffered water (150 μL total volume, 100 mM NaCl, 10 mM sodium phosphate, pH 7.5). 2 μL aliquots of the corresponding stock protein solution (GST-Crk SH2, GST-Abl SH2 or GST-PI3K SH2, concentration determined by Bio-Rad Protein Assay) were consecutively added, and fluorescence emission spectra were recorded 1 minute after each addition ([…], 2 nm excitation and emission slit width). The increase in emission intensity at the maximum emission wavelength was plotted against total protein concentration and fitted by least-square analysis assuming a 1 to 1 binding mode to obtain the apparent Kd.
Abl-SH2 was received as a GST fusion in a pGEX-KT vector, amp-resistant, IPTG-inducible. The SH2 domain was cloned using BamH1 (5′) EcoR1 (3′) sites.

[1] = Photophysical properties: UV absorbance, fluorescence emission and quantum yield in different solvents; format: physicochemical; conditions: for quantum yield (Φ): vs. quinine sulfate standard
Protocol: Quantum yields (Φ) were measured by comparison with a standard, which emits in a similar region to the test sample. From the available standard compounds quinine sulfate in 0.1 M H2SO4 (Φ=0.54) was selected.
UV absorbance at the excitation wavelength (375 nm), and fluorescence emission spectra of a series of solutions of the standard and compound were recorded. Solutions were prepared with different absorbances, ranging from 0 (solvent blank) to 0.1. A series of graphs of integrated fluorescence vs. absorbance were obtained. The data were fitted to a linear equation with gradient (grad), and intercept=0. See FIG. 5 as an example of the plots obtained.
The gradients of graphs in FIG. 5 are proportional to the quantum yield of the different samples. Absolute values were calculated using the standard sample, which has a fixed and known fluorescence quantum yield value, according to the following equation: […]
Where the subscripts std and x denote standard and test respectively. The value Φ is the fluorescence quantum yield, grad is the gradient (grad) from the plot of integrated fluorescence intensity vs. absorbance, and η the refractive index of the solvent.
The UV absorbance spectra (40 μM in methanol) and fluorescence emission spectra of compound (VIII), 6DMN-GlyOMe are shown in FIG. 6 and tabulated in Table 4. The UV spectrum of 6DMN-GlyOMe has an intense absorption band at 378 nm which is not found in unsubstituted 2,3-naphthalimides. The maximum excitation wavelength of 6DMN-GlyOMe is at 375 nm.
Quantum yields (Φ) were measured in the solvents listed in Table 2 by comparison with a standard, which emits in a similar region to 6DMN-GlyOMe. Quinine sulfate in 0.1 M H2SO4 (Φ=0.54) was used as the standard. (Melhuish, W. B. J. Phys. Chem., 1961, 65, 229-235). Solutions were prepared at different concentrations such that the absorbance measurements ranged between 0 and 0.1 at and above the excitation wavelength to avoid non-linear effects.
UV absorbance at the excitation wavelength (375 nm), and fluorescence emission spectra of a series of solutions of the standard and 6DMN-GlyOMe were recorded. A series of graphs of integrated fluorescence vs. absorbance were obtained. The data were fitted to a linear equation with gradient (grad), and intercept=0. The gradient (grad) is proportional to the quantum yield of the sample. Absolute values were calculated using the standard sample, which has a fixed and known fluorescence quantum yield value, according to the equation above.

[2] = Lippert-Mataga plot: Stokes shift vs. orientation polarizability; format: physicochemical; conditions: from Stokes shift in 1,4-dioxane/acetonitrile mixtures
From the text: This can be estimated from a Lippert-Mataga plot, which is essentially a plot of the Stokes shift of the fluorescence emission versus the solvent polarity. (Lippert, V. E. Z. Elektrochem. 1957, 61, 962-975; Mataga, N.; Kaifu, Y.; Koizumi, M. Bull. Chem. Soc. Jpn. 1956, 29, 465-470.)
The difference (Δ v) in the maximum absorption ( vA) and emission wavelengths ( vF), known as the Stokes shift and expressed in wavenumbers, is plotted vs. Δf. The term Δf is called the orientation polarizability and can be calculated according to the following equation:
[formula] where ε is the solvent dielectric constant and n is the solvent refraction index.
The term Δf can also be calculated for a mixture of solvents. […] In this case, Δf is obtained for each mixture using ε and n values calculated using the molar fractions (χ) in the equation as follow: ε=(χacetonitrile)(38.8)+(χdiox)(2.218) (3) n=(χacetonitrile)(1.3442)+(χdiox)(1.4224) (4) where χacetonitrile+χdiox=1.
The relationship between Δ v and Δf is expressed by the following equation:
[formula] where c is the velocity of light, h is Plank's constant, μe−μg is the difference between the dipole moments of the excited and the ground states respectively (Δμ), and α0 is the radius of the Onsager cavity around the compound.

GST-Crk SH2 = GST-Crk SH2 (Homo sapiens, UniProt P46108); experiment: Fluorescence titration of peptides with GST-Crk SH2, determination of Kd; format: binding; design: Human Crk SH2 domain was expressed as a GST fusion protein; made in house; host or cells: E. coli NB42
Protocol: as §1
(§3) Fluorescence titrations of Crk-bp and Crk-bp2 with targeted GST-Crk SH2 are shown in FIG. 1 (a) and (b), respectively. Fluorescence titrations of Crk-bp and Crk-bp2 with non-targeted GST-Abl SH2 are shown in FIG. 4 (a) and (b), respectively.
as §2
Human Crk SH2 domain was expressed as a GST fusion protein transformed into E. coli NB42 strain. Expression of SH2 domains was carried out following reported conditions. […]

[3] = in 0.1 M H2SO4; Melhuish 1961; cited from earlier work
GST-PI3K SH2 = experiment: Fluorescence titration of peptides with GST-PI3K SH2 (non-target domain); format: binding; conditions: peptide saturated with GST-PI3K SH2, 565 nm (FIG. 1c)
Protocol: as §1, §3
Peptide stock solutions of known concentration (determined by UV absorbance at 388 nm, E=7980 M−1 cm−1) were used to prepare 5 μM peptide concentration samples in buffered water (150 μL total volume, 100 mM NaCl, 10 mM sodium phosphate, pH 7.5). 2 μL aliquots of the corresponding stock protein solution (GST-Crk SH2, GST-Abl SH2 or GST-PI3K SH2, concentration determined by Bio-Rad Protein Assay) were consecutively added, and fluorescence emission spectra were recorded 1 minute after each addition (excitation 395 nm, 2 nm excitation and emission slit width). […]
Src and PI3K SH2 domains were expressed and purified as GST fusion following reported procedures. […] Proteins were quantified using the Micro BCA protein Assay Kit (Pierce) relative to a BSA standard. All fusion proteins were analyzed by Coomasie staining and Western analysis with anti-GST antibodies.

Kd (GST-Abl SH2; target Abl SH2, 20 μM in PBS buffer, pH 7.5): 12 ± 2 µM
Molecule: Ac-Dap(6DMN)-Gln-pTyr-Glu-Asn-Val-Gln-Ser-(CONH2) (SEQ OD NO: 7) [Abl-bp2]

maximum excitation wavelength [1]: 375 nm
intense absorption band of the UV spectrum ([1]; 40 μM in methanol): 378 nm
absorbance maximum ([1]; 1,4-dioxane): 372 nm
emission maximum ([1]; 1,4-dioxane): 498 nm
quantum yield (Φ) ([1]; 1,4-dioxane): 0.220
absorbance maximum ([1]; 2-propanol): 385 nm
emission maximum ([1]; 2-propanol): 589 nm
quantum yield (Φ) ([1]; 2-propanol): 0.018
absorbance maximum ([1]; DMF): 380 nm
emission maximum ([1]; DMF): 545 nm
quantum yield (Φ) ([1]; DMF): 0.155
absorbance maximum ([1]; acetone): 375 nm
emission maximum ([1]; acetone): 532 nm
quantum yield (Φ) ([1]; acetone): 0.148
absorbance maximum ([1]; acetonitrile): 380 nm
emission maximum ([1]; acetonitrile): 549 nm
quantum yield (Φ) ([1]; acetonitrile): 0.135
absorbance maximum ([1]; chloroform): 380 nm
emission maximum ([1]; chloroform): 509 nm
quantum yield (Φ) ([1]; chloroform): 0.225
absorbance maximum ([1]; dichloromethane): 379 nm
emission maximum ([1]; dichloromethane): 517 nm
quantum yield (Φ) ([1]; dichloromethane): 0.210
absorbance maximum ([1]; ethanol): 379 nm
emission maximum ([1]; ethanol): 584 nm
quantum yield (Φ) ([1]; ethanol): 0.027
absorbance maximum ([1]; methanol): 382 nm
emission maximum ([1]; methanol): 589 nm
quantum yield (Φ) ([1]; methanol): 0.012
absorbance maximum ([1]; tetrahydrofuran): 373 nm
emission maximum ([1]; tetrahydrofuran): 510 nm
quantum yield (Φ) ([1]; tetrahydrofuran): 0.147
absorbance maximum ([1]; toluene): 373 nm
emission maximum ([1]; toluene): 491 nm
quantum yield (Φ) ([1]; toluene): 0.208
absorbance maximum ([1]; water): 388 nm
emission maximum ([1]; water): 592 nm
increase in the dipole moment between ground and excited state [2]: 5.5 D
Molecule: COC(=O)CN1C(=O)c2cc3ccc(N(C)C)cc3cc2C1=O [Peptide 6DMN-GlyOMe]

Molecule: CC[C@H](C)[C@H](NC(=O)[C@H](CC(N)=O)NC(=O)[C@@H]1CCCN1C(=O)[C@H](Cc1c[nH]cn1)NC(=O)[C@H](CC(=O)O)NC(=O)[C@H](Cc1ccc(OP(=O)(O)O)cc1)NC(=O)[C@H](CCC(N)=O)NC(=O)[C@H](CN1C(=O)c2cc3ccc(N(C)C)cc3cc2C1=O)NC(=O)[C@H](CCC(=O)O)NC(C)=O)C(N)=O [Crk-bp, Ac-Glu-Dap(6DMN)-Gln-pTyr-Asp-His-Pro-Asn-Ile-(CONH2) (SEQ ID NO: 1)] (Ac-E[Dap(6-DMN)]Q[pY]DHPNI-NH2)
Kd (GST-Crk SH2): 4.8 ± 2 µM
Fluorescence increase (GST-Crk SH2; target Crk SH2, excitation 375 nm, emission 565 nm): 500%^b

Molecule: C=C[C@H]1C[N@@]2CC[C@H]1C[C@H]2[C@H](O)c1ccnc2ccc(OC)cc12 [quinine sulfate]
quantum yield (Φ) of the standard [3]: 0.54

Molecule: CC[C@H](C)[C@H](NC(=O)[C@H](CC(N)=O)NC(=O)[C@@H]1CCCN1C(=O)[C@H](Cc1c[nH]cn1)NC(=O)[C@H](CC(=O)O)NC(=O)[C@H](Cc1ccc(OP(=O)(O)O)cc1)NC(=O)[C@H](CCC(N)=O)NC(=O)[C@H](CN1C(=O)c2cc3ccc(N(C)C)cc3cc2C1=O)NC(=O)CNC(C)=O)C(N)=O [Crk-bp2, Ac-Gly-Dap(6DMN)-Gln-pTyr-Asp-His-Pro-Asn-Ile-(CONH2) (SEQ ID NO: 5)] (Ac-G[Dap(6-DMN)]Q[pY]DHPNI-NH2)
relative fluorescence emission intensity with non-target SH2 domain compared with targeted GST-Crk SH2 (GST-Abl SH2; peptide saturated with GST-Abl SH2, 565 nm (FIG. 1c)): notably less
relative fluorescence emission intensity with non-target SH2 domain compared with targeted GST-Crk SH2 (GST-PI3K SH2): notably less

Molecule: Ac-Gly-Dap(6DMN)-Gln-pTyr-Glu-Asn-Val-Gln-Ser-(CONH2) (SEQ ID NO: 6) (Ac-G[Dap(6DMN)]Q[pY]ENVQS-NH2) [Abl-bp]
quantum yield (Φ) ([1]; water, calculated using peptide Abl-bp): 0.002
Fluorescence increase (GST-Abl SH2; target Abl SH2, excitation 375 nm, emission 599 nm): 400%^c
